# Numbered stars: 1 amine (or outer) side, 2 acyl side, 3 side chain; on linkers, the order of the positions; unused ones are H or OH. Square brackets hold non-standard residues; d marks the D form. Peptide text beside a SMILES is read from it. * marks the point of attachment. Propanoyl(3-(3,4-F2Ph)) = O=C(CCc1ccc(F)c(F)c1)*; Propanoyl(3-(4-F-phenyl)) = O=C(CCc1ccc(F)cc1)*; Trp(5-F) = N[C@@H](Cc1c[nH]c2ccc(F)cc12)C(=O)O; dTrp(5-F) = N[C@H](Cc1c[nH]c2ccc(F)cc12)C(=O)O; Hydrocinnamoyl(2,4-F2) = O=C(CCc1ccc(F)cc1F)*; Propanoyl(3-(4-Cl-Ph)) = O=C(CCc1ccc(Cl)cc1)*; dPhe(4-Cl) = N[C@H](Cc1ccc(Cl)cc1)C(=O)O; 1Nal = N[C@@H](Cc1cccc2ccccc12)C(=O)O; 2Nal = N[C@@H](Cc1ccc2ccccc2c1)C(=O)O; d1Nal = N[C@H](Cc1cccc2ccccc12)C(=O)O; NMeY = CN[C@@H](Cc1ccc(O)cc1)C(=O)O; Nicotinoyl = O=C(c1cccnc1)*; Morpholide = C1CN(*)CCO1; X4 = O=C(CCc1cccc(F)c1)*; CO = O=C([*:1])[*:2]
# Molecular target: T1, LHRH receptors (Rattus norvegicus, UniProt P30969)
# T1 construct: Pituitary membranes containing LHRH receptors are prepared in batches from quick-frozen rat pituitaries; tissue Hilltop Labs; host or cells: rat pituitary membranes
# T1 sequence (P30969 1-327): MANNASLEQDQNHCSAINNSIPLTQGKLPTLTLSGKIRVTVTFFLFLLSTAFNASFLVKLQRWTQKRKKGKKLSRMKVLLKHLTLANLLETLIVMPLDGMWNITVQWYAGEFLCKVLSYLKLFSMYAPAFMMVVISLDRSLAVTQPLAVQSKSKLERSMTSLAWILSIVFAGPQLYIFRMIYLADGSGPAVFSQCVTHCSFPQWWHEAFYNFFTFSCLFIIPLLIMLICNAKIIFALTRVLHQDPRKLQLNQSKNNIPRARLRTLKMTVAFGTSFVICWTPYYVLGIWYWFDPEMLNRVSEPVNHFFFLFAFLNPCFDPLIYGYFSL
# Assay: Receptor Binding (radioligand receptor binding assay)
# Conditions: table 3; rat pituitary membranes, radioiodinated [D-Leu^6 -des Gly^10 ]-LHRH ethyl amide 50 pM, 2 hours at 4° C.; read-out: Receptor Binding pkI (converted)
row,SMILES,Ki [nM]
1,"CCNC(=O)[C@@H]1CCCN1C(=O)[C@H](CCCNC(=N)N)NC(=O)[C@H](CC(C)C)NC(=O)[C@@H](Cc1c[nH]c2ccccc12)NC(=O)[C@H](Cc1ccc(O)cc1)NC(=O)[C@H](CO)NC(=O)[C@H](Cc1c[nH]c2ccccc12)NC(=O)[C@@H](Cc1ccccc1)NC(C)=O [Compound 134, N-Acetyl-D-Phe-Trp-Ser-Tyr-D-Trp-Leu-Arg-ProNHEt] (Ac-[dF]WSY[dW]LRP-NHEt)",0.398
2,"CCNC(=O)[C@@H]1CCCN1C(=O)[C@H](CCCNC(=N)N)NC(=O)[C@H](CC(C)C)NC(=O)[C@@H](Cc1c[nH]c2ccccc12)NC(=O)[C@H](Cc1ccc(O)cc1)NC(=O)[C@H](CO)NC(=O)[C@H](Cc1cccc2ccccc12)NC(=O)N1CCOCC1 [Compound 137, N-(N-alpha-Morpholinocarbonyl)-1-Nal-Ser-Tyr-D-Trp-Leu -Arg-ProNHEt] ({Morpholide-CO}-[1Nal]SY[dW]LRP-NHEt)",0.263
3,"CCNC(=O)[C@@H]1CCCN1C(=O)[C@H](CCCNC(=N)N)NC(=O)[C@H](CC(C)C)NC(=O)[C@@H](Cc1c[nH]c2ccccc12)NC(=O)[C@H](Cc1ccc(O)cc1)NC(=O)[C@H](CO)NC(=O)[C@H](Cc1ccc2ccccc2c1)NC(=O)N1CCOCC1 [Compound 138, N-(N-alpha-morpholinocarbonyl) -2-Nal-Ser-Tyr-D-Trp-Leu-Arg-ProNHEt] ({Morpholide-CO}-[2Nal]SY[dW]LRP-NHEt)",1

# Same assay, conditions: table 4; rat pituitary membranes, radioligand 50 pM, 2 hours at 4° C.; read-out: Receptor Binding pkI (converted)
row,SMILES,Ki [nM]
1,"CCNC(=O)[C@@H]1CCCN1C(=O)[C@H](CCCNC(=N)N)NC(=O)[C@H](CC(C)C)NC(=O)[C@@H](Cc1c[nH]c2ccccc12)NC(=O)[C@H](Cc1ccc(O)cc1)NC(=O)[C@H](CO)NC(=O)[C@@H](Cc1ccc(Cl)cc1)NC(=O)CCc1ccc(F)cc1 [Compound 140, (3-9) [N-(3-(4-Fluorophenyl)propionyl) -D-4-Cl-Phe^3 -D-Trp^6 -Pro^9 NHEt]LHRH] ({Propanoyl(3-(4-F-phenyl))}-[dPhe(4-Cl)]SY[dW]LRP-NHEt)",0.0891
2,"CCNC(=O)[C@@H]1CCCN1C(=O)[C@H](CCCN=C(N)N)NC(=O)[C@H](CC(C)C)NC(=O)[C@@H](Cc1c[nH]c2ccccc12)NC(=O)[C@H](Cc1ccc(O)cc1)NC(=O)[C@H](CO)NC(=O)[C@@H](Cc1ccc(O)cc1)NC(=O)CCc1ccc(F)cc1 [Compound 141, (3-9)[N-(3-(4-Fluorophenyl)propionyl) -D-Tyr^3 -D-Trp^6 -Pro^9 NHEt]LHRH] ({Propanoyl(3-(4-F-phenyl))}-[dY]SY[dW]LRP-NHEt)",0.0257
3,"CCNC(=O)[C@@H]1CCCN1C(=O)[C@H](CCCNC(=N)N)NC(=O)[C@H](CC(C)C)NC(=O)[C@@H](Cc1c[nH]c2ccccc12)NC(=O)[C@H](Cc1ccc(O)cc1)NC(=O)[C@H](CO)NC(=O)[C@H](Cc1c[nH]c2ccc(F)cc12)NC(=O)CCc1ccc(F)cc1 [Compound 142, (3-9)[N-(3-(4-Fluorophenyl)propionyl) -5-F-Trp^3 -D-Trp^6 -Pro^9 NHEt]LHRH] ({Propanoyl(3-(4-F-phenyl))}-[Trp(5-F)]SY[dW]LRP-NHEt)",0.0724
4,"CCNC(=O)[C@@H]1CCCN1C(=O)[C@H](CCCNC(=N)N)NC(=O)[C@H](CC(C)C)NC(=O)[C@@H](Cc1c[nH]c2ccccc12)NC(=O)[C@H](Cc1ccc(O)cc1)NC(=O)[C@H](CO)NC(=O)[C@@H](Cc1c[nH]c2ccc(F)cc12)NC(=O)CCc1ccc(F)cc1 [Compound 143, (3-9)[N-(3-(4-Fluorophenyl)propionyl)-D -5-F-Trp^3 -D-Trp^6 -Pro^9 NHEt]LHRH] ({Propanoyl(3-(4-F-phenyl))}-[dTrp(5-F)]SY[dW]LRP-NHEt)",0.049
5,"CCNC(=O)[C@@H]1CCCN1C(=O)[C@H](CCCN=C(N)N)NC(=O)[C@H](CC(C)C)NC(=O)[C@@H](Cc1c[nH]c2ccccc12)NC(=O)[C@H](Cc1ccc(O)cc1)NC(=O)[C@H](CO)NC(=O)[C@H](Cc1cccc2ccccc12)NC(=O)CCc1ccc(F)cc1 [Compound 144, (3-9)[N-(3-(4-Fluorophenyl)propionyl) -1-Nal^3 -D-Trp^6 -Pro^9 NHEt]LHRH] ({Propanoyl(3-(4-F-phenyl))}-[1Nal]SY[dW]LRP-NHEt)",0.0257
6,"CCNC(=O)[C@@H]1CCCN1C(=O)[C@H](CCCN=C(N)N)NC(=O)[C@H](CC(C)C)NC(=O)[C@@H](Cc1c[nH]c2ccccc12)NC(=O)[C@H](Cc1ccc(O)cc1)NC(=O)[C@H](CO)NC(=O)[C@@H](Cc1cccc2ccccc12)NC(=O)CCc1ccc(F)cc1 [Compound 145, (3-9)[N-(3-(4-Fluorophenyl)propionyl) -D-1-Nal^3 -D-Trp^6 -Pro^9 NHEt]LHRH] ({Propanoyl(3-(4-F-phenyl))}-[d1Nal]SY[dW]LRP-NHEt)",0.0251
7,"CCNC(=O)[C@@H]1CCCN1C(=O)[C@H](CCCN=C(N)N)NC(=O)[C@H](CC(C)C)NC(=O)[C@@H](Cc1c[nH]c2ccccc12)NC(=O)[C@H](Cc1ccc(O)cc1)NC(=O)[C@H](CO)NC(=O)[C@H]1CCCN1C(=O)CCc1ccc(F)cc1 [Compound 147, (3-9)[N-(3-(4-Fluorophenyl)propionyl) -D-Pro^3 -D-Trp^6 -Pro^9 NHEt]LHRH] ({Propanoyl(3-(4-F-phenyl))}-[dP]SY[dW]LRP-NHEt)",0.02
8,"CCNC(=O)[C@@H]1CCCN1C(=O)[C@H](CCCNC(=N)N)NC(=O)[C@H](CC(C)C)NC(=O)[C@@H](Cc1c[nH]c2ccccc12)NC(=O)[C@H](Cc1ccc(O)cc1)NC(=O)[C@H](CO)NC(=O)[C@@H]1CCCN1C(=O)CCc1ccc(F)cc1 [Compound 148, (3-9)[N-(3-(4-Fluorophenyl)propionyl) -Pro^3 -D-Trp^6 -Pro^9 NHEt]LHRH] ({Propanoyl(3-(4-F-phenyl))}-PSY[dW]LRP-NHEt)",0.055
9,"CCNC(=O)[C@@H]1CCCN1C(=O)[C@H](CCCNC(=N)N)NC(=O)[C@H](CC(C)C)NC(=O)[C@@H](Cc1ccc(Cl)cc1)NC(=O)[C@H](Cc1ccc(O)cc1)NC(=O)[C@H](CO)NC(=O)[C@@H](Cc1c[nH]c2ccccc12)NC(=O)CCc1ccc(F)cc1 [Compound 149, (3-9)[N-(3-(4-Fluorophenyl)propionyl) -D-Trp3-D-4-Cl-Phe^6 -Pro^9 NHEt]LHRH] ({Propanoyl(3-(4-F-phenyl))}-[dW]SY[dPhe(4-Cl)]LRP-NHEt)",0.0295
10,"CCNC(=O)[C@@H]1CCCN1C(=O)[C@H](CCCN=C(N)N)NC(=O)[C@H](CC(C)C)NC(=O)[C@@H](Cc1ccc(O)cc1)NC(=O)[C@H](Cc1ccc(O)cc1)NC(=O)[C@H](CO)NC(=O)[C@@H](Cc1c[nH]c2ccccc12)NC(=O)CCc1ccc(F)cc1 [Compound 150, (3-9)[N-(3-(4-Fluorophenyl)propionyl) -D-Trp^3 -D-Tyr^6 -Pro^9 NHEt]LHRH] ({Propanoyl(3-(4-F-phenyl))}-[dW]SY[dY]LRP-NHEt)",0.0102
11,"CCNC(=O)[C@@H]1CCCN1C(=O)[C@H](CCCN=C(N)N)NC(=O)[C@H](CC(C)C)NC(=O)[C@@H](Cc1c[nH]c2ccccc12)NC(=O)[C@H](Cc1ccc(O)cc1)NC(=O)[C@H](CO)NC(=O)[C@@H](Cc1c[nH]c2ccccc12)NC(=O)CCc1ccc(F)c(F)c1 [Compound 151, (3-9)[N-(3-(3,4-diFluorophenyl)propionyl) -D-Trp^3,6 -Pro^9 NHEt]LHRH] ({Propanoyl(3-(3,4-F2Ph))}-[dW]SY[dW]LRP-NHEt)",0.0282
12,"CCNC(=O)[C@@H]1CCCN1C(=O)[C@H](CCCN=C(N)N)NC(=O)[C@H](CC(C)C)NC(=O)[C@@H](CCCCNC(=O)c1cccnc1)NC(=O)[C@H](Cc1ccc(O)cc1)N(C)C(=O)[C@H](CO)NC(=O)[C@@H](Cc1c[nH]c2ccccc12)NC(=O)CCc1ccc(F)cc1F [Compound 152, (3-9)[N-(3-(2,4-diFluorophenyl)propionyl) -D-Trp^3 -NMeTyr^5 -D-Lys^6 (N-epsilon-nicotinyl)-Pro^9 NHEt]LHRH] ({Hydrocinnamoyl(2,4-F2)}-[dW]S[NMeY][dK](Nicotinoyl)LRP-NHEt)",0.0214
13,"CCNC(=O)[C@@H]1CCCN1C(=O)[C@H](CCCN=C(N)N)NC(=O)[C@H](CC(C)C)NC(=O)[C@@H](CCCCNC(=O)c1cccnc1)NC(=O)[C@H](Cc1ccc(O)cc1)N(C)C(=O)[C@H](CO)NC(=O)[C@@H](Cc1c[nH]c2ccccc12)NC(=O)CCc1cccc(F)c1 [Compound 153, (3-9)[N-(3-(3-Fluorophenyl)propionyl) -D-Trp^3 -NMeTyr^5 -D-Lys^6 (N-epsilon-nicotinyl)-Pro ^9 NHEt]LHRH] (X4-[dW]S[NMeY][dK](Nicotinoyl)LRP-NHEt)",0.024
14,"CCNC(=O)[C@@H]1CCCN1C(=O)[C@H](CCCN=C(N)N)NC(=O)[C@H](CC(C)C)NC(=O)[C@@H](CCCCNC(=O)c1cccnc1)NC(=O)[C@H](Cc1ccc(O)cc1)N(C)C(=O)[C@H](CO)NC(=O)[C@@H](Cc1c[nH]c2ccccc12)NC(=O)CCc1ccc(Cl)cc1 [Compound 154, (3-9)[N-(3-(4-Chlorophenyl)propionyl) -D-Trp^3 -NMeTyr^5 -DLys^6 (N-epsilon-nicotinyl)-Pro ^9 NHEt]LHRH] ({Propanoyl(3-(4-Cl-Ph))}-[dW]S[NMeY][dK](Nicotinoyl)LRP-NHEt)",0.0316
15,"CCNC(=O)[C@@H]1CCCN1C(=O)[C@H](CCCN=C(N)N)NC(=O)[C@H](CC(C)C)NC(=O)[C@@H](Cc1c[nH]c2ccccc12)NC(=O)[C@H](Cc1ccc(O)cc1)N(C)C(=O)[C@H](CO)NC(=O)[C@@H](Cc1c[nH]c2ccccc12)NC(=O)CCc1ccc(F)cc1F [Compound 155, (3-9)[N-(3-(2,4-diFluorophenyl)propionyl) -D-Trp^3,6 -NMeTyr^5 -Pro^9 NHEt]LHRH] ({Hydrocinnamoyl(2,4-F2)}-[dW]S[NMeY][dW]LRP-NHEt)",0.049
